Assay results as given in patent publication US7915245B2, “Methods and compositions of trail-death receptor agonists/activators” (The Board of Regents of the University of Texas System, priority 2007, dated 2011).

Legend:
[1] = test system: human bronchial epithelial cells (Beas2B); experiment: XTT cell viability, bronchial epithelial cells; format: cell-based; conditions: 72 h
Method: FIG. 23. DRAs have no effect on cell viability in human bronchial epithelial cells (Beas2B). Beas2B cells were treated with DRA11, DRA9 and DRA9S for 72 h. At the end of incubation period, cell viability was measured by XTT assay. Data represent the mean±S.D. Control refers to group treated with DMSO (0.01%).
(§1) XTT Assay. Cells (1×10^4 cells per well) were seeded in 96-well plates (flat bottom), and treated with death receptor agonists/activators/small molecules in the presence or absence of TNF-related apoptosis inducing ligand (TRAIL). Plates were incubated for various time points at 37° C. and 5% CO2. Before the end of the experiment, 50 μl XTT (sodium 3′[1-(phenylaminocarbonyl)-3,4-tetrazolium]-bis(4-methoxy-6-nitro) benzene sulfonic acid hydrate) labeling mixture (final concentration, 125 μM sodium XTT and 25 μM PMS) per well was added and plates were incubated for a further 4 h at 37° C. and 5% CO2. The spectrophotometric absorbance of the sample was measured using a microtitre plate (ELISA) reader. The wavelength to measure absorbance of the formazan product was 450 nm, and the reference wavelength was 650 nm.
Beas2B cells were treated with DRA11, DRA9 and DRA9S for 72 h. At the end of incubation period, cell viability was measured by XTT assay. See, for example, FIG. 23. Data represent the mean ±S.D. Control refers to group treated with DMSO (0.01%).

[2] = test system: human normal mammary epithelial cells (HMECs); experiment: XTT cell viability, normal mammary epithelial cells; format: cell-based; conditions: 72 h
Method: FIG. 21. DRAs have no effect on cell viability in human normal mammary epithelial cells (HMECs), HMECs were treated with DRA11, DRA9 and DRA9S for 72 h. At the end of incubation period, cell viability was measured by XTT assay. Data represent the mean±S.D. Control refers to group treated with DMSO (0.01%).
FIGS. 60 A, B & C. DRAs has no effect on cell viability of human normal mammary, prostate and lung epithelial cells. Human normal mammary (FIG. 60A), prostate (FIG. 60B) and lung (FIG. 60C) epithelial cells were treated with DRA11 (0-25 μM) for 72 h, and cell viability was measured by XTT assay.
XTT Assay. Cells (1×10^4 cells per well) were seeded in 96-well plates (flat bottom), and treated with death receptor agonists/activators/small molecules in the presence or absence of TNF-related apoptosis inducing ligand (TRAIL). Plates were incubated for various time points at 37° C. and 5% CO2. […] The spectrophotometric absorbance of the sample was measured using a microtitre plate (ELISA) reader. The wavelength to measure absorbance of the formazan product was 450 nm, and the reference wavelength was 650 nm.
HMECs were treated with DRA11, DRA9 and DRA9S for 72 h. At the end of incubation period, cell viability was measured by XTT assay. […]

AsPC-1 cells = experiment: XTT cell viability with caspase inhibitor pretreatment, AsPC-1; format: cell-based, human; conditions: then DRA 72 h; for effect of caspase-3 inhibitor (z-DEVD-fmk) on the DRA effect on cell viability: Z-DEVD-fmk 25 μM 2 h pretreatment; for effect of caspase-8 inhibitor (Ac-IETD-CHO) on the DRA effect on cell viability: caspase-8 inhibitor 25 μM 2 h pretreatment; for effect of pan caspase inhibitor (z-VAD-fmk) on the DRA effect on cell viability: inhibitor 25 μM 2 h pretreatment
Method: FIG. 5. […] AsPC-1 cells were pretreated with either control peptide (25 μM) or caspase-3 inhibitor (Z-DEVD-fmk, 25 μM) for 2 h, followed by treatment with various doses of DRA11, DRA9 and DRA9S for 72 h. At the end of incubation, cell viability was measured by XTT assay. Data represent the mean±S.D. Control refers to a group treated with DMSO (0.01%).
FIG. 6. […] AsPC-1 cells were pretreated with either control peptide (25 μM) or caspase-8 inhibitor (25 μM) for 2 h, followed by treatment with various doses of DRA11, DRA9 and DRA9S for 72 h. At the end of incubation, cell viability was measured by XTT assay. Data represent the mean±S.D. Control refers to a group treated with DMSO (0.01%).
FIG. 7. […] AsPC-1 cells were pretreated with either control peptide (25 μM) or caspase-8 inhibitor (25 μM) for 2 h, followed by treatment with various doses of DRA11, DRA9 and DRA9S for 72 h. At the end of incubation, cell viability was measured by XTT assay. Data represent the mean±S.D. Control refers to a group treated with DMSO (0.01%).
as §1
AsPC-1 cells were pretreated with either control peptide (25 μM) or caspase-3 inhibitor (Z-DEVD-fink, 25 μM) for 2 h, followed by treatment with various doses of DRA11, DRA9 and DRA9S for 72 h. At the end of incubation, cell viability was measured by XTT assay. See, for example, FIG. 5. Data represent the mean±S.D. Control refers to a group treated with DMSO (0.01%).
AsPC-1 cells were pretreated with either control peptide (25 μM) or caspase-8 inhibitor (25 μM) for 2 h, followed by treatment with various doses of DRA11, DRA9 and DRA9S for 72 h. At the end of incubation, cell viability was measured by XTT assay. See, for example, FIG. 6. Data represent the mean±S.D. Control refers to a group treated with DMSO (0.01%).
AsPC-1 cells were pretreated with either control peptide (25 μM) or caspase-8 inhibitor (25 μM) for 2 h, followed by treatment with various doses of DRA11, DRA9 and DRA9S for 72 h. At the end of incubation, cell viability was measured by XTT assay. See, for example, FIG. 7. Data represent the mean±S.D. Control refers to a group treated with DMSO (0.01%).

[3] = test system: mesothelioma REN cell line; experiment: XTT cell viability, mesothelioma REN; format: cell-based; conditions: then DRA 72 h; for effect of NFκB inhibitor MG132 on the inhibitory effect on cell viability: MG132 2.5 μM 4 h
Method: FIG. 45. […] Mesothelioma REN cells were treated with NFκB inhibitor MG132 (2.5 μM) for 4 h followed by treatment with various concentrations of DRA11, DRA9, and DRA9S for 72 h. At the end of incubation, cell viability was measured by XTT assay. Data represent the mean±S.D.
FIG. 55. […] REN cells were pretreated with either control peptide (10 μM) or pan caspase inhibitor (z-VAD-fink, 25 μM) for 2 h, followed by treatment with various doses of DRA11, DRA9 and DRA9S for 72 h. At the end of incubation, cell viability was measured by XTT assay. Data represent the mean±S.D.
as §1

[4] = test system: breast cancer MDA-MB-231 cell line; experiment: XTT cell viability with signaling inhibitor pretreatment, MDA-MB-231; format: cell-based, human; conditions: then DRA 72 h; for effect of Akt inhibitor on the inhibitory effect on cell viability: Akt inhibitor 0.5 μM 4 h pretreatment; for effect of PI-3 kinase inhibitor LY294002 on the inhibitory effect on cell viability: LY294002 2.5 μM 4 h pretreatment; for effect of NFκB inhibitor MG132 on the inhibitory effect on cell viability: MG132 2.5 μM 4 h pretreatment
Method: FIG. 39. […] MDA-MB-231 cells were pretreated with NFκB inhibitor MG132 (2.5 μM) for 4 h followed by treatment with various concentrations of DRA11, DRA9, and DRA9S for 72 h. At the end of incubation, cell viability was measured by XTT assay. Data represent the mean±S.D.
FIG. 40. […] MDA-MB-231 cells were pretreated with LY294002 (2.5 μM) for 4 h followed by treatment with various concentrations of DRA11, DRA9, and DRA9S for 72 h. At the end of incubation, cell viability was measured by XTT assay. Data represent the mean±S.D.
FIG. 41. […] MDA-MB-231 cells were pretreated with Akt inhibitor (0.5 μM) for 4 h followed by treatment with various concentrations of DRA11, DRA9, and DRA9S for 72 h. At the end of incubation, cell viability was measured by XTT assay. Data represent the mean±S.D.
as §1

| SMILES | effect on cell viability in Beas2B cells [1] | effect on cell viability in HMECs [2] | effect of caspase-3 inhibitor (z-DEVD-fmk) on the DRA effect on cell viability (AsPC-1 cells) | effect of caspase-8 inhibitor (Ac-IETD-CHO) on the DRA effect on cell viability (AsPC-1 cells) | effect of pan caspase inhibitor (z-VAD-fmk) on the DRA effect on cell viability (AsPC-1 cells) | effect of NFκB inhibitor MG132 on the inhibitory effect on cell viability [3] | effect of Akt inhibitor on the inhibitory effect on cell viability [4] | effect of PI-3 kinase inhibitor LY294002 on the inhibitory effect on cell viability [4] | effect of NFκB inhibitor MG132 on the inhibitory effect on cell viability [4] | effect of pan caspase inhibitor (z-VAD-fmk) on the inhibitory effect on cell viability ([3]; z-VAD-fmk 25 μM 2 h pretreatment) |
| --- | --- | --- | --- | --- | --- | --- | --- | --- | --- | --- |
| CCOc1cc(Br)c(Br)c(/C=N/c2cccc(C(=O)O)c2C)c1O [DRA9S] | no effect | no effect | blocks the effects | blocks the effects | blocks effects | enhances the inhibitory effects | enhances the inhibitory effects | enhances the inhibitory effects | enhances the inhibitory effects |  |
| CCOc1cc(Br)c(Br)c(/C=N/c2cccc(C(=O)O)c2)c1O [DRA9] | no effect | no effect | blocks the effects | blocks the effects | blocks effects | enhances the inhibitory effects | enhances the inhibitory effects | enhances the inhibitory effects | enhances the inhibitory effects | blocks the inhibitory effects |
